Experimental data as given in PMC10361207, “Cannabinoid and Opioid Receptor Affinity and Modulation of Cancer-Related Signaling Pathways of Machaeriols and Machaeridiols from Machaerium Pers” (Molecules, 2023).
Converted amounts (≈) assume the structure as drawn.

How the values were obtained:
κ opioid receptor = target: T1, κ opioid receptor (Homo sapiens, UniProt P41145); type: binding; conditions: 10 μM; [3H]-U-69,593
T1 construct: host or cells: HEK293, stably transfected; membranes
Protocol: (§1) HEK293 cells stably transfected with δ, κ and μ opioid subtypes were a generous gift from Roth Laboratories (University of North Carolina at Chapel Hill, N.C., USA). CB and opioid cells were maintained as previously described.
Membranes were purified by first washing the cells with cold PBS and scraping the cells into cold 50 mM Tris-HCl, pH 7.4 buffer, which was centrifuged at 5200× g for 10 min at 4 °C; next, the supernatant was discarded, and the pellet was washed with more Tris-HCl buffer, homogenized via a Sonic Dismembrator (Fisher Scientific, Pittsburgh, PA, USA) and then centrifuged at 24,000× g for 40 min at 4 °C. […] The total membrane protein concentration was measured using a Pierce BCA Protein Assay Kit (Thermo Scientific, Rockford, IL, USA) as per the manufacturer’s protocol.
Cannabinoid and opioid competitive radioligand binding assays were performed as previously described. […] Percent displacements were evaluated for all the cannabinoid and opioid subtypes with a triplicate of a fixed concentration (10 µg/mL for extracts and fractions and 10 μM for purified compounds). […] The percent displacement was calculated to represent the ability of the samples to displace the radioligand binding for a given cannabinoid or opioid receptor subtype.
The percent displacement was calculated as follows: 100−binding of compound−nonspecific binding/specific binding×100 […]

[1] = test system: SK-MEL, KB, BT-549, SK-OV-3, HeLa, LLC-PK1 and Vero cells; assay: Cytotoxicity, summary over the cell line panel; type: cell-based; conditions: highest tested concentration of 50 µg/mL; most of the cells
Protocol: (§2) In vitro cytotoxic activity was determined against five human cancer cell lines—malignant melanoma (SK-MEL), epidermal carcinoma oral (KB), ductal carcinoma breast (BT-549), ovary carcinoma (SKOV-3) and cervical (HeLa) cancer cells—and two non-cancerous kidney cell lines (LLC-PK1 and Vero). All cell lines were obtained from the American Type Culture Collection (ATCC, Rockville, MD, USA). Each assay was performed in 96-well tissue culture-treated microplates. The cells were seeded at a density of 25,000 cells/well and incubated for 24 h. Samples at different concentrations were added, and the cells were incubated again for 48 h. At the end of the incubation, the cell viability was determined using Neutral Red dye according to a modification of the procedure used by Borenfreund et al.. IC50 values were determined from dose–response curves of the percent growth inhibition against test concentrations. Doxorubicin was used as a positive control, while DMSO was used as the negative (vehicle) control.

Stat3 = assay: Luciferase reporter assay, Stat3, T98G; type: cell-based; conditions: Homo sapiens; T98G cells; inducer IL6
Protocol: (§3) Hela cells (or T98G cells) from ATCC were plated in white opaque 384-well plates at a density of 4300 cells/well in 30 µL of growth medium (DMEM with 10% FBS and 1% Pen/Strep). The next day, the medium was aspirated and replaced with DMEM containing 1% FBS. The cells were transfected with respective plasmids using X-tremeGENE HP DNA transfection reagent (Roche). After 24 h of transfection, the test agents were added to the transfected cells, followed 30 min later by an inducing agent: interleukin 6 (IL-6) for Stat3, TGF-β for Smad, m-wnt3a for Wnt and PMA for AP-1, NF-κB, E2F, Myc, ETS, Notch and Hedgehog. No inducer was added for FoXO and pTK. After 4 h or 6 h of induction, the cells were lysed via the addition of the One-Glo luciferase assay system (Promega; Madison, WI). The light output was detected in a GloMax®-Multi+ Detection System with Instinct® Software (Promega E 8051). This luciferase assay determines if the test agent is able to inhibit the activation of cancer-related signaling pathways. In the case of FoxO, the enhanced luciferase activity via the test agent was assessed.

ETS = assay: Luciferase reporter assay, ETS, T98G; type: cell-based; conditions: Homo sapiens; T98G cells; inducer PMA
Protocol: as §3

FoxO = assay: Luciferase reporter assay, FoxO, T98G; type: cell-based; conditions: Homo sapiens; T98G cells; no inducer; dash: no activity detected; read-out: IC50, FoxO (None)
Protocol: as §3

AP-1 = assay: Luciferase reporter assay, AP-1, T98G; type: cell-based; conditions: T98G cells; inducer PMA
Protocol: as §3

Notch = assay: Luciferase reporter assay, Notch, T98G; type: cell-based; conditions: Homo sapiens; T98G cells; inducer PMA
Protocol: as §3

NF-κB = assay: Luciferase reporter assay, NF-κB, T98G; type: cell-based; conditions: Homo sapiens; T98G cells; inducer PMA
Protocol: as §3

[2] = Cytotoxicity, Neutral Red, Vero; type: cell-based; conditions: monkey, Vero kidney fibroblasts, Na = not active up to 50 µg/mL
Protocol: as §2

[3] = Cytotoxicity, Neutral Red, HeLa; type: cell-based; conditions: human, HeLa cervical cancer cells, Na = not active up to 50 µg/mL
Protocol: as §2

[4] = Cytotoxicity, Neutral Red, LLC-PK1; type: cell-based; conditions: pig, LLC-PK1 kidney epithelial cells, Na = not active up to 50 µg/mL
Protocol: as §2

E2F = assay: Luciferase reporter assay, E2F, T98G; type: cell-based; conditions: Homo sapiens; T98G cells; inducer PMA
Protocol: as §3

Myc = assay: Luciferase reporter assay, Myc, T98G; type: cell-based; conditions: Homo sapiens; T98G cells; inducer PMA
Protocol: as §3

[5] = Cytotoxicity, summary over the cell line panel; type: cell-based; conditions: human, HeLa, SK-MEL, KB and BT-549 cells; read-out: Cytotoxicity IC50 values, span over cell lines
Protocol: as §2

μ opioid receptor = target: T2, μ opioid receptor (Homo sapiens, UniProt P35372); assay: biochemical; type: binding
T2 construct: host or cells: HEK293, stably transfected; membranes
T2 sequence (P35372 whole entry): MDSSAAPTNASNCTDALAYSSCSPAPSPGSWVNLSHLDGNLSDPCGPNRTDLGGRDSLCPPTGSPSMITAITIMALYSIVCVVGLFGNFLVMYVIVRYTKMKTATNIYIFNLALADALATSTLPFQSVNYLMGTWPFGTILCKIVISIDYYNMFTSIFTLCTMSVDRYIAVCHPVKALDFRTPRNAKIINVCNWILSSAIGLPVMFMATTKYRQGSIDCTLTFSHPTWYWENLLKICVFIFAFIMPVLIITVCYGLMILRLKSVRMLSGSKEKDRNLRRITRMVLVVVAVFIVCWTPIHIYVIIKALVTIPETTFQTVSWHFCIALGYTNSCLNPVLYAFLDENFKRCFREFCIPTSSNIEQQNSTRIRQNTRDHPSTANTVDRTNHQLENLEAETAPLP
Protocol: as §1
Membranes were purified by first washing the cells with cold PBS and scraping the cells into cold 50 mM Tris-HCl, pH 7.4 buffer, which was centrifuged at 5200× g for 10 min at 4 °C; next, the supernatant was discarded, and the pellet was washed with more Tris-HCl buffer, homogenized via a Sonic Dismembrator (Fisher Scientific, Pittsburgh, PA, USA) and then centrifuged at 24,000× g for 40 min at 4 °C. Finally, the pellet was re-suspended in cold 50 mM Tris-HCl buffer, aliquoted into 2 mL vials and stored at −80 °C. The total membrane protein concentration was measured using a Pierce BCA Protein Assay Kit (Thermo Scientific, Rockford, IL, USA) as per the manufacturer’s protocol.
Cannabinoid and opioid competitive radioligand binding assays were performed as previously described. Saturation experiments were performed for all the receptors to determine the receptor concentration and radioligand dissociation constant (Kd) for the membrane. Percent displacements were evaluated for all the cannabinoid and opioid subtypes with a triplicate of a fixed concentration (10 µg/mL for extracts and fractions and 10 μM for purified compounds). […] Control/test compounds were dissolved in DMSO at 10 μg/mL for extracts and fractions and 10 μM for purified compounds. […] The percent displacement was calculated to represent the ability of the samples to displace the radioligand binding for a given cannabinoid or opioid receptor subtype.
The percent displacement was calculated as follows: 100−binding of compound−nonspecific binding/specific binding×100
The competitive binding assays were performed using 12 serial dilutions of each compound ranging from 0.002 to 300 μM (control compounds were serially diluted from 10 μM to 0.06 nM). The cannabinoid assays were incubated for 90 min at 37 °C with gentle agitation. The opioid assays were incubated for 60 min at room temperature. Bound radioligands were collected on GF/C (cannabinoid) or GF/B plates (opioid) and washed 10 times with ice-cold 50 mM Tris-HCl (pH 7.4)/0.1% BSA (cannabinoid) or ice-cold 50 mM Tris-HCl (pH 7.4) (opioid). Radiodetection was measured with 50 µL (cannabinoid) or 25 µL (opioid) of MicroScint^TM-20 on a TopCount NXT HTS Microplate Scintillation Counter (PerkinElmer, Waltham, MA, USA). The IC50 and Ki values were calculated via a non-linear curve fit model using GraphPad Prism 5.0 software (GraphPad Software, Inc., San Diego, CA, USA). Each compound was tested in triplicate unless stated otherwise.

Hedgehog = assay: Luciferase reporter assay, Hedgehog, T98G; type: cell-based; conditions: Homo sapiens; T98G cells; inducer PMA
Protocol: as §3

T1 sequence (P41145 whole entry): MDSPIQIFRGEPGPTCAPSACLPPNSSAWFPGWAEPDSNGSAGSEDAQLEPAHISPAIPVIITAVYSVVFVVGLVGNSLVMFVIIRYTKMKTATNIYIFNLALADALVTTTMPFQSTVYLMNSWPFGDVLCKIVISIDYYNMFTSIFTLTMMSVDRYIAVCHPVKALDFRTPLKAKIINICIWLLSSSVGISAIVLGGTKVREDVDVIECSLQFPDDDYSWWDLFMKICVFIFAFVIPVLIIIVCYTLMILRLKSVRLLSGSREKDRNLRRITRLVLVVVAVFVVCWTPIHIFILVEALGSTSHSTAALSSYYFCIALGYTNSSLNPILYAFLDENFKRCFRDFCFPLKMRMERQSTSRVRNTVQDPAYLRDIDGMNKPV

Structure (SMILES) | Percent displacement, ĸ (κ opioid receptor) [%] | Cytotoxicity (in words) [1] | IC50 (Stat3) [nM] | IC50 (ETS) [µM] | IC50 (FoxO) [µM] | IC50 (AP-1) [µM] | IC50 (Notch) [µM] | IC50 (NF-κB) [µM] | IC50 at 48 h [2] [µg/mL] | IC50 at 48 h [3] [µg/mL] | IC50 at 48 h [4] [µg/mL] | IC50 (E2F) [nM] | IC50 (Myc) [nM] | IC50 at 48 h [5] [µg/mL] | Percent displacement, µ (μ opioid receptor; 10 μM, [3H]-DAMGO) [%] | Ki (μ opioid receptor; NA = not active, read-out: μ Ki ± SEM) [µM] | IC50 (Hedgehog) [µM]
C[C@H]1CC[C@H]2[C@H](C1)c1c(O)cc(/C=C/c3ccccc3O)cc1OC2(C)C [compound 3, machaeriol C] | 6.4 | inactive | – | – | – | – | – | – | – | – | – | – | – | – | – | – | –
C=C(C)[C@H]1CC[C@H](C)C[C@@H]1c1c(O)cc(/C=C/c2ccccc2O)cc1O [compound 6, machaeridiol B] | – | – | 1400 | 5.9 | > 50 | 4.2 | 4.6 | 4 | 47 (≈ 129 µM) | 37 (≈ 102 µM) | 37 (≈ 102 µM) | 700 | 2000 | 32 to 38 (≈ 87.8 to 104 µM) | 27.6 | 4.73 ± 0.84 | 5
